Measurements from ChEMBL document CHEMBL1125236 (J Med Chem, 1991).
“And” between values parts separate entries of the source, which are not always exact repeats. Equal values may be shown once.

Columns and labels:
[1] = tested on: L1210; test: Antitumor activity (T/C) evaluated against L1210 leukemia from the median survival time of treated mice (T) over that of control mice (C) at a dose of 4 mg/kg; type: functional, Mus musculus
[2] = tested on: L1210; test: Antitumor activity (T/C) evaluated against L1210 leukemia from the median survival time of treated mice (T) over that of control mice (C) at a dose of 0.75 mg/kg as experiment 3
[3] = tested on: L1210; test: Antitumor activity (T/C) evaluated against L1210 leukemia from the median survival time of treated mice (T) over that of control mice (C) at a dose of […] as experiment 1; type: functional, Mus musculus
[4] = tested on: L1210; test: Antitumor activity (T/C) evaluated against L1210 leukemia from the median survival time of treated mice (T) over that of control mice (C) at a dose of 1 mg/kg; type: functional, Mus musculus
[5] = tested on: L1210; test: Compound was evaluated for the growth inhibition of L1210 cells.; type: functional, cell-based; conditions: Mus musculus
[6] = Compound was evaluated for growth inhibition of WI-L2 cells.; type: functional, cell-based; conditions: Homo sapiens, WIL2
[7] = molecular target: T1, Dihydrofolate reductase (Homo sapiens, UniProt P00374)
T1 sequence (P00374 whole entry): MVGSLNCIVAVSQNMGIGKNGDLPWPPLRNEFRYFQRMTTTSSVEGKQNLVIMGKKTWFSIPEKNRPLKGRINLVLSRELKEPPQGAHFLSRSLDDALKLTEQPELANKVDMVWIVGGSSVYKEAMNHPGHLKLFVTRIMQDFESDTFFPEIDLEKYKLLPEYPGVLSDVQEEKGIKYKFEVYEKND
Description: Inhibition of dihydrofolate reductase (DHFR) from human cells (WI-L2/M4).

[8] = tested on: L1210; test: In vivo activity against L1210 leukemia cells in mice at a dose of 4 mg/kg and expressed as percent weight change after 7 days as experiment 1.; type: functional, Mus musculus
[9] = tested on: L1210; test: Antitumor activity (T/C) evaluated against L1210 leukemia from the median survival time of treated mice (T) over that of control mice (C) at a dose of 20 mg/kg as experiment 2; type: functional, Mus musculus
[10] = tested on: L1210; test: In vivo activity against L1210 leukemia cells in mice at a dose of 4 mg/kg and expressed as Survival median in days as experiment 3; type: functional, Mus musculus
[11] = tested on: L1210; test: Antitumor activity (T/C) evaluated against L1210 leukemia from the median survival time of treated mice (T) over that of control mice (C) at a dose of 2 mg/kg as experiment 1; type: functional, Mus musculus
[12] = tested on: L1210; test: In vivo activity against L1210 leukemia cells in mice at a dose of 12 mg/kg and expressed as Survival median in days as experiment 2; type: functional, Mus musculus
[13] = tested on: L1210; test: In vivo activity against L1210 leukemia cells in mice at a dose of 2 mg/kg and expressed as percent weight change after 7 days as experiment 1.; type: functional, Mus musculus
[14] = tested on: L1210; test: Antitumor activity (T/C) evaluated against L1210 leukemia from the median survival time of treated mice (T) over that of control mice (C) at a dose of 12 mg/kg as experiment 2; type: functional, Mus musculus
[15] = tested on: L1210; test: Antitumor activity (T/C) evaluated against L1210 leukemia from the median survival time of treated mice (T) over that of control mice (C) at a dose of 16 mg/kg as experiment 1; type: functional, Mus musculus
[16] = tested on: L1210; test: In vivo activity against L1210 leukemia cells in mice at a dose of 20 mg/kg and expressed as Survival median in days as experiment 2; type: functional, Mus musculus
[17] = tested on: L1210; test: In vivo activity against L1210 leukemia cells in mice at a dose of 16 mg/kg and expressed as percent weight change after 7 days as experiment 1.; type: functional, Mus musculus
[18] = tested on: L1210; test: In vivo activity against L1210 leukemia cells in mice at a dose of 8 mg/kg and expressed as Survival median in days as experiment 3; type: functional, Mus musculus
[19] = tested on: L1210; test: Antitumor activity (T/C) evaluated against L1210 leukemia from the median survival time of treated mice (T) over that of control mice (C) at a dose of 4 mg/kg as experiment 3; type: functional, Mus musculus
[20] = tested on: L1210; test: In vivo activity against L1210 leukemia cells in mice at a dose of 8 mg/kg and expressed as Survival median in days as experiment 1.; type: functional, Mus musculus
[21] = tested on: L1210; test: In vivo activity against L1210 leukemia cells in mice at a dose of 12 mg/kg and expressed as Survival median in days as experiment 3; type: functional, Mus musculus
[22] = tested on: L1210; test: In vivo activity against L1210 leukemia cells in mice at a dose of 16 mg/kg and expressed as Survival median in days as experiment 2; type: functional, Mus musculus
[23] = tested on: L1210; test: In vivo activity against L1210 leukemia cells in mice at a dose of 24 mg/kg and expressed as percent weight change after 7 days as experiment 2; type: functional, Mus musculus
[24] = tested on: L1210; test: Antitumor activity (T/C) evaluated against L1210 leukemia from the median survival time of treated mice (T) over that of control mice (C) at a dose of 16 mg/kg as experiment 3; type: functional, Mus musculus
[25] = tested on: L1210; test: In vivo activity against L1210 leukemia cells in mice at a dose of 16 mg/kg and expressed as Survival median in days as experiment 1.; type: functional, Mus musculus
[26] = tested on: L1210; test: In vivo activity against L1210 leukemia cells in mice at a dose of 32 mg/kg and expressed as percent weight change after 7 days as experiment 1.; type: functional, Mus musculus
[27] = tested on: L1210; test: In vivo activity against L1210 leukemia cells in mice at a dose of 32 mg/kg and expressed as Survival median in days as experiment 1.; type: functional, Mus musculus
[28] = tested on: L1210; test: In vivo activity against L1210 leukemia cells in mice at a dose of 4 mg/kg and expressed as Survival range in days as experiment 1.; type: functional, Mus musculus
[29] = tested on: L1210; test: In vivo activity against L1210 leukemia cells in mice at a dose of 4 mg/kg and expressed as Survival median in days as experiment 1.; type: functional, Mus musculus
[30] = tested on: L1210; test: Antitumor activity (T/C) evaluated against L1210 leukemia from the median survival time of treated mice (T) over that of control mice (C) at a dose of 32 mg/kg as experiment 1; type: functional, Mus musculus
[31] = tested on: L1210; test: Antitumor activity (T/C) evaluated against L1210 leukemia from the median survival time of treated mice (T) over that of control mice (C) at a dose of 8 mg/kg as experiment 3; type: functional, Mus musculus
[32] = tested on: L1210; test: In vivo activity against L1210 leukemia cells in mice at a dose of 16 mg/kg and expressed as Survival median in days as experiment 3; type: functional, Mus musculus
[33] = tested on: L1210; test: Antitumor activity (T/C) evaluated against L1210 leukemia from the median survival time of treated mice (T) over that of control mice (C) at a dose of 12 mg/kg as experiment 3; type: functional, Mus musculus
[34] = tested on: L1210; test: Antitumor activity (T/C) evaluated against L1210 leukemia from the median survival time of treated mice (T) over that of control mice (C) at a dose of 16 mg/kg as experiment 2; type: functional, Mus musculus
[35] = tested on: L1210; test: In vivo activity against L1210 leukemia cells in mice at a dose of 16 mg/kg and expressed as percent weight change after 7 days as experiment 3; type: functional, Mus musculus
[36] = tested on: L1210; test: In vivo activity against L1210 leukemia cells in mice at a dose of 2 mg/kg and expressed as Survival median in days as experiment 1.; type: functional, Mus musculus
[37] = tested on: L1210; test: In vivo activity against L1210 leukemia cells in mice at a dose of 4 mg/kg and expressed as percent weight change after 7 days as experiment 3; type: functional, Mus musculus
[38] = tested on: L1210; test: Antitumor activity (T/C) evaluated against L1210 leukemia from the median survival time of treated mice (T) over that of control mice (C) at a dose of 24 mg/kg as experiment 2; type: functional, Mus musculus
[39] = tested on: L1210; test: In vivo activity against L1210 leukemia cells in mice at a dose of 20 mg/kg and expressed as percent weight change after 7 days as experiment 2; type: functional, Mus musculus
[40] = tested on: L1210; test: In vivo activity against L1210 leukemia cells in mice at a dose of 12 mg/kg and expressed as percent weight change after 7 days as experiment 3; type: functional, Mus musculus
[41] = tested on: L1210; test: In vivo activity against L1210 leukemia cells in mice at a dose of 8 mg/kg and expressed as percent weight change after 7 days as experiment 3; type: functional, Mus musculus
[42] = tested on: L1210; test: Antitumor activity (T/C) evaluated against L1210 leukemia from the median survival time of treated mice (T) over that of control mice (C) at a dose of 4 mg/kg as experiment 1; type: functional, Mus musculus
[43] = tested on: L1210; test: In vivo activity against L1210 leukemia cells in mice at a dose of 12 mg/kg and expressed as percent weight change after 7 days as experiment 2; type: functional, Mus musculus
[44] = tested on: L1210; test: In vivo activity against L1210 leukemia cells in mice at a dose of 16 mg/kg and expressed as percent weight change after 7 days as experiment 2; type: functional, Mus musculus
[45] = tested on: L1210; test: In vivo activity against L1210 leukemia cells in mice at a dose of 8 mg/kg and expressed as percent weight change after 7 days as experiment 1.; type: functional, Mus musculus

For `CN(Cc1cnc2nc(N)nc(N)c2n1)c1ccc(C(=O)N[C@@H](CCC(=O)O)C(=O)O)cc1` [METHOTREXATE], the T/C [1] was 175% and 188% and 200%, the T/C [2] was 175% and the T/C [3] was 213%. The T/C [4] was 188%.
`CN(Cc1cnc2nc(N)nc(N)c2n1)c1ccc(C(=O)NC(CCC(=O)Nc2cccc(C(=O)O)c2)C(=O)O)cc1` (stereo unspecified) showed an IC50 [5] of 1.6 nM, an IC50 [6] of 2.2 nM and an IC50 [7] of 35 nM.
In the case of `Nc1nc(N)c2nc(CNc3ccc(C(=O)NC(CCCNC(=O)c4ccccc4C(=O)O)C(=O)O)cc3)cnc2n1` (stereo unspecified), the weight change % [8] is reported as -3%, the T/C [9] is reported as >263% and the Survival median [10] is reported as 17 days. For the same molecule, the T/C [11] was 163%, the Survival median [12] was 15 days and the weight change % [13] was -4%. The T/C [14] was 188%, the T/C [15] was 188% and 225% and the Survival median [16] was >21 days. It also gave a weight change % [17] of -5%, a Survival median [18] of 20 days and a T/C [19] of 213%. It also gave a Survival median [20] of 15 days, a Survival median [21] of 22 days and a Survival median [22] of 18 days. The weight change % [23] was -3%, the T/C [24] was 300% and the IC50 [6] was 48 nM. For the same molecule, the Survival median [25] was 18 days, the weight change % [26] was -11% and the Survival median [27] was 11 days. It also gave a Survival range [28] of 13 days, a Survival median [29] of 14 days and a T/C [30] of 138%. It also gave a T/C [31] of 250%, a Survival median [32] of 24 days and a T/C [33] of 275%. The T/C [34] was 225%, the body weight change % [35] was -3% and the Survival median [36] was 13 days. For the same molecule, the weight change % [37] was 8%, the T/C [38] was 250% and the weight change % [39] was -2%. For the same molecule, the weight change % [40] was 2%, the weight change % [41] was 4% and the T/C [42] was 175%. The weight change % [43] was 1%, the weight change % [44] was 1% and the weight change % [45] was 4%.
